From patent US11208412B2 (DAEGU-GYEONGBUK MEDICAL INNOVATION FOUNDATION, priority 2017, dated 2021)
Where two headings read alike, the source gives them in different places.

What was measured:
Assay in all cases: Kinase selectivity, DiscoverX scanMAX Kinase assay panel (% control)
Format in all cases: binding
[1] = biological target: T1, kinases of the scanMAX Kinase assay panel (Homo sapiens, UniProt P36888, D835H); conditions: FLT3(D835H); 1 uM
T1 construct: purchased DiscoverX Co. (contract measurement) scanMAX Kinase assay panel
T1 sequence (P36888 27-993 D835H): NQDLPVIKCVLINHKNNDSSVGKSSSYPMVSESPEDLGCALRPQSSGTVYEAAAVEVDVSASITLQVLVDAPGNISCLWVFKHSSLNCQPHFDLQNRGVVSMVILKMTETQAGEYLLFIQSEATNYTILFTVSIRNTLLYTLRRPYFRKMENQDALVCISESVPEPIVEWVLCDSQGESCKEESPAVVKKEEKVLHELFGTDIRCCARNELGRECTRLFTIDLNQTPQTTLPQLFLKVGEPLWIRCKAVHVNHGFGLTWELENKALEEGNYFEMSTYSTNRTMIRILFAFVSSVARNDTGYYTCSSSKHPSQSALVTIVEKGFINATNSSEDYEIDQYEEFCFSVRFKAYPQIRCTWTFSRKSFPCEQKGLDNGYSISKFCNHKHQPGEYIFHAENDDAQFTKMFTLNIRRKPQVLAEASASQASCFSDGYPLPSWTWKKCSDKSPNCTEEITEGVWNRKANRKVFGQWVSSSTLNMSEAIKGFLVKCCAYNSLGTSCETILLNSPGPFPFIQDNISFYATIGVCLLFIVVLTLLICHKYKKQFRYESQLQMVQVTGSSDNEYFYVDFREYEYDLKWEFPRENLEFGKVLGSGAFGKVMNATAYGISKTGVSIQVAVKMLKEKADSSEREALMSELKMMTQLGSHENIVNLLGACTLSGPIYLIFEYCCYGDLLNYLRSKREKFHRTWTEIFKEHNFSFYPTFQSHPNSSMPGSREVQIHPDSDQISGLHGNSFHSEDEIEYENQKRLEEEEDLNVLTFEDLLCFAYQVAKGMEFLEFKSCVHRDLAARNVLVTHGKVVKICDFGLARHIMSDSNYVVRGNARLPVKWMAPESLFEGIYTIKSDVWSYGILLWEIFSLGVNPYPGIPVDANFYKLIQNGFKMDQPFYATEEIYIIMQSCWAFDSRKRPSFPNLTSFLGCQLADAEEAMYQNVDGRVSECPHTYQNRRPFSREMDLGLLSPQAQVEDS
Description: (§1) The following experiment was performed to evaluate the activity of the compounds of the present invention to inhibit many enzymes.
(§2) Particularly, the compounds of Examples 8, 64 and 104 were selected among all of those compounds of the invention. DiscoverX Co. was asked to measure the enzyme (kinase) selectivity, and the experiment was performed using scanMAX™ Kinase assay panel.
(§3) Wherein, the concentration of the drug treated to each enzyme was 1 uM in DMSO and the control percentage (% control) was determined by the following Equation 1. (example compound−positive control)/(negative control−positive control)×100 [Equation 1]
(§4) Herein, the positive control indicates the compound showing the % control of 0%, and the negative control indicates DMSO showing the % control of 100%. The enzyme selectivity in the present invention is defined as follows: When the % control for each enzyme is less than 35% (<35%), it is judged that the compound has the activity to the corresponding enzyme.

[2] = biological target: T2, kinases of the scanMAX Kinase assay panel (Homo sapiens, UniProt O60674); conditions: JAK2(JH1domain-catalytic); 1 uM
T2 construct: purchased DiscoverX Co. (contract measurement) scanMAX Kinase assay panel
Description: as §1, §2, §3, §4

[3] = biological target: T3, kinases of the scanMAX Kinase assay panel (Homo sapiens, UniProt Q96D53); conditions: ADCK4; 1 uM
T3 construct: purchased DiscoverX Co. (contract measurement) scanMAX Kinase assay panel
T3 sequence (Q96D53 1-544): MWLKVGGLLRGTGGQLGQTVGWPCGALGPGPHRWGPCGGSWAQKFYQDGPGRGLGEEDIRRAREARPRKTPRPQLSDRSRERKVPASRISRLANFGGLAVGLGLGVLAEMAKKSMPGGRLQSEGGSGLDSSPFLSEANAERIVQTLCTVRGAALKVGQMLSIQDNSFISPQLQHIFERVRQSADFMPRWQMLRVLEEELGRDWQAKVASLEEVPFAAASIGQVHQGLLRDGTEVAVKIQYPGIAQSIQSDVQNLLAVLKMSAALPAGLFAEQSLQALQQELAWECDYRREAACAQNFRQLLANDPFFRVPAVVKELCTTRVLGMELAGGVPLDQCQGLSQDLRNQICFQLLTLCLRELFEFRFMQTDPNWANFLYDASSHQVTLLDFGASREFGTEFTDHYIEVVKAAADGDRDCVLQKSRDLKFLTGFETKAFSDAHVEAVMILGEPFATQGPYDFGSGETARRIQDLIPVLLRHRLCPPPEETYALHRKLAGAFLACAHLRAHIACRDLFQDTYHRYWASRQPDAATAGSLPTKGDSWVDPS
Description: as §1, §2, §3, §4

[4] = biological target: T4, kinases of the scanMAX Kinase assay panel (Homo sapiens, UniProt Q15418); conditions: 1 uM in DMSO
T4 construct: purchased DiscoverX Co. (contract measurement) scanMAX Kinase assay panel
Description: as §1, §2, §3, §4

[5] = biological target: T5, kinases of the scanMAX Kinase assay panel (Homo sapiens, UniProt P35626); conditions: GRK3; 1 uM
T5 construct: purchased DiscoverX Co. (contract measurement) scanMAX Kinase assay panel
T5 sequence (P35626 1-688): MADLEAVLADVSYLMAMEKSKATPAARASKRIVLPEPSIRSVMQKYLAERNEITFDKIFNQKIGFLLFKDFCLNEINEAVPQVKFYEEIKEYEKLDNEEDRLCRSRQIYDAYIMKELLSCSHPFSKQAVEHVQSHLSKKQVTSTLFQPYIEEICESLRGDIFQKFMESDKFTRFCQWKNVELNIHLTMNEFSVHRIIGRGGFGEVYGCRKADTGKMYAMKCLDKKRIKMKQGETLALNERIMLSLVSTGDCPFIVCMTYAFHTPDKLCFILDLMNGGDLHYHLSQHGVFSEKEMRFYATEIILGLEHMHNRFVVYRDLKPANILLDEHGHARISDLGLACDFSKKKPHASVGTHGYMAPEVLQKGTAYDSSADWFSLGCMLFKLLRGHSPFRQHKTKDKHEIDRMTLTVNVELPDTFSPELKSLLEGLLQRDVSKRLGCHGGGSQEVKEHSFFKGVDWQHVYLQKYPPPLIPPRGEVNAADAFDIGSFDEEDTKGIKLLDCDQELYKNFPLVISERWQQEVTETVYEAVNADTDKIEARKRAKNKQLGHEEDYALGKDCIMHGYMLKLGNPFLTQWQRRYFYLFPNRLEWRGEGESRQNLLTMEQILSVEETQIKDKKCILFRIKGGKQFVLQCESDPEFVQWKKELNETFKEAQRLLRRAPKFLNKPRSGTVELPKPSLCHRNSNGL
Description: as §1, §2, §3, §4

[6] = biological target: T6, kinases of the scanMAX Kinase assay panel (Homo sapiens, UniProt P09619); conditions: PDGFRB; 1 uM
T6 construct: purchased DiscoverX Co. (contract measurement) scanMAX Kinase assay panel
Description: as §1, §2, §3, §4

[7] = biological target: T7, kinases of the scanMAX Kinase assay panel (Homo sapiens, UniProt Q86Y07); conditions: kinase VRK2; 1 uM in DMSO
T7 construct: purchased DiscoverX Co. (contract measurement) scanMAX Kinase assay panel
Description: as §1, §2, §3, §4

[8] = kinase RSK1(Kin.Dom.1-N-terminal), read-out: % control, RSK1(Kin.Dom.1-N-terminal)
[9] = kinase RSK1(Kin.Dom.2-C-terminal), read-out: % control, RSK1(Kin.Dom.2-C-terminal)

T4 sequence (Q15418 whole entry): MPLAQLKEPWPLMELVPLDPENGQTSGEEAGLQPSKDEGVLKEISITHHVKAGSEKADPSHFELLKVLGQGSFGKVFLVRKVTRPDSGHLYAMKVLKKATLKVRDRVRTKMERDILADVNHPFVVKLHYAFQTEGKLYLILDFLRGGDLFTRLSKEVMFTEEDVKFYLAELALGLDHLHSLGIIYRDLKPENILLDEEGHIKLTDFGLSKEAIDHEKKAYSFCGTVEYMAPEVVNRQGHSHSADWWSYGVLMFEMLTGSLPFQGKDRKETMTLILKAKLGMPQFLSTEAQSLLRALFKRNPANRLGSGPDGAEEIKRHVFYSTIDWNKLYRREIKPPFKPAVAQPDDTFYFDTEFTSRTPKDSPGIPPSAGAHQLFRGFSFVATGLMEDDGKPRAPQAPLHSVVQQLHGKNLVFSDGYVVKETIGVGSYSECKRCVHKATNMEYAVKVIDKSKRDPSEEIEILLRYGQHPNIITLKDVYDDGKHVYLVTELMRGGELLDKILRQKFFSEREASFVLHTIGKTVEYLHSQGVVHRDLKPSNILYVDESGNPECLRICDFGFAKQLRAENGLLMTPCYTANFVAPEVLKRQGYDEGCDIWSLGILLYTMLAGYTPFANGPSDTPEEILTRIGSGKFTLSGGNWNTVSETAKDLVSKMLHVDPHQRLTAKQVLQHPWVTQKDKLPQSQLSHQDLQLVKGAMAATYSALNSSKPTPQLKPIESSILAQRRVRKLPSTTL
T2 sequence (O60674 whole entry): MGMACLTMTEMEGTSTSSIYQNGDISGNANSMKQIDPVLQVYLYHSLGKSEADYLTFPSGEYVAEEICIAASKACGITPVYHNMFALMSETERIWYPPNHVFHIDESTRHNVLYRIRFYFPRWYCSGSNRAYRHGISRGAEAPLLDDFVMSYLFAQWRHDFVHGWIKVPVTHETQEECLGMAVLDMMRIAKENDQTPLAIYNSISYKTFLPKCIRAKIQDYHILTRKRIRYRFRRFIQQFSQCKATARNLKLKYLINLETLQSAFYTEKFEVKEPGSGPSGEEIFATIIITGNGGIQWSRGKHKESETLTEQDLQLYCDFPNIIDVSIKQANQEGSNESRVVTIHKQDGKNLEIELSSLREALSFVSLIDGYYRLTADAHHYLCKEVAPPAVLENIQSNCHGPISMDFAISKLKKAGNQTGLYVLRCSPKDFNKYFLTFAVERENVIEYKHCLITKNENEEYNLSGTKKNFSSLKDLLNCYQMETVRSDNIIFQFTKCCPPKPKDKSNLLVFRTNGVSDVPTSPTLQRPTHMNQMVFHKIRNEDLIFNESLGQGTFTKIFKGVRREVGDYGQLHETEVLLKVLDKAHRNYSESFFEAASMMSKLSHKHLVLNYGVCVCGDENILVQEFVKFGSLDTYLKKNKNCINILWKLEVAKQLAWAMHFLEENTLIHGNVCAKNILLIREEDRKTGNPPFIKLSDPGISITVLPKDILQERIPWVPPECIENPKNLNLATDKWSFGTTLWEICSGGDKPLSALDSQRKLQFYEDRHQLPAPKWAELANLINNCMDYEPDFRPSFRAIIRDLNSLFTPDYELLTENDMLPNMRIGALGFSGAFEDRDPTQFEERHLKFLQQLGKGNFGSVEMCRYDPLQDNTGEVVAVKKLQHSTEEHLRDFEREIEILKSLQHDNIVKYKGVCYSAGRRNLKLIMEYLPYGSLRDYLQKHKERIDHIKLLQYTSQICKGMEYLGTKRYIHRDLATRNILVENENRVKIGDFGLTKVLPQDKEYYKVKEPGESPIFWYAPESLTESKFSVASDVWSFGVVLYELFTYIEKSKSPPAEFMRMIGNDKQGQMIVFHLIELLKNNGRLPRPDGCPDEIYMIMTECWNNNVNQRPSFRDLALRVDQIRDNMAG
T6 sequence (P09619 33-1106): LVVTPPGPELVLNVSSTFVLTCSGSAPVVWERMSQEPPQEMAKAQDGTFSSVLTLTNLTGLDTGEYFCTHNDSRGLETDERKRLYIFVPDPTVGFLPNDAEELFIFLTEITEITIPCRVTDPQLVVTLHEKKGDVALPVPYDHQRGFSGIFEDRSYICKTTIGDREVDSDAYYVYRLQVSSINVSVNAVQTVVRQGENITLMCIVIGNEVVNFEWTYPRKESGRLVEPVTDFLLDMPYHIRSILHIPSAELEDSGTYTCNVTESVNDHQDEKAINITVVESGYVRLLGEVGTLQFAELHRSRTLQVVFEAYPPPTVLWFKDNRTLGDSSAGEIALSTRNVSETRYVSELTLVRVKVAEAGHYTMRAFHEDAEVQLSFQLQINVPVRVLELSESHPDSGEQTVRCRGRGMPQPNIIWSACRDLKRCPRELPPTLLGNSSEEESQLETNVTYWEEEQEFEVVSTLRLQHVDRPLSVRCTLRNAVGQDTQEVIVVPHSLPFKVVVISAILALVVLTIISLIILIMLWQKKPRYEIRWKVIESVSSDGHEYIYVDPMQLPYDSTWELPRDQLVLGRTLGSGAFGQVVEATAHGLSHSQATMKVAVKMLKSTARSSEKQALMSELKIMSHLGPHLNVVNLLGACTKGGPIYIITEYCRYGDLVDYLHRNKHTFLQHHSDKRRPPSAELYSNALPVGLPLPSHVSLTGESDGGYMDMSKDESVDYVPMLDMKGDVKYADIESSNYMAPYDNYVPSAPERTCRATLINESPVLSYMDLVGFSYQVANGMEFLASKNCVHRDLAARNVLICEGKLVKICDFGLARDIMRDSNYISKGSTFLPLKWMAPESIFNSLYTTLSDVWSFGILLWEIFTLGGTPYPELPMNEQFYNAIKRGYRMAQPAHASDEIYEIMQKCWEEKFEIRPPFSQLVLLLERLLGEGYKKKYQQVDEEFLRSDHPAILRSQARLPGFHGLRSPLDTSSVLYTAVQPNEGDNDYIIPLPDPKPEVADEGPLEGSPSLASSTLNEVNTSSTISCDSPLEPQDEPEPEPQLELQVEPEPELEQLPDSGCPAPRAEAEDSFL
T7 sequence (Q86Y07 whole entry): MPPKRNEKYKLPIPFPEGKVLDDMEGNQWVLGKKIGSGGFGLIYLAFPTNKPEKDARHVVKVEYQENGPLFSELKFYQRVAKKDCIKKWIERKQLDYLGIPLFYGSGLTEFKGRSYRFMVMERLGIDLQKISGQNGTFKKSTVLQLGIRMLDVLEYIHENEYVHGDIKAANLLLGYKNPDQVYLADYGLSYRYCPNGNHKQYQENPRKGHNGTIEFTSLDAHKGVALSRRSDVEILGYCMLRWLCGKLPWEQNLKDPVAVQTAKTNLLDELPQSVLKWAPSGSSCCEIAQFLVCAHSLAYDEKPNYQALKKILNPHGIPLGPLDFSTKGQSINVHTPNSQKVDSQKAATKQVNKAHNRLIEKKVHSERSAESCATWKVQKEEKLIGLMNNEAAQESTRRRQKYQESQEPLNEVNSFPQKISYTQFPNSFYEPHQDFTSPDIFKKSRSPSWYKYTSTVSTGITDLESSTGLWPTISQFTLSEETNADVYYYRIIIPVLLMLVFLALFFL

Compound	remaining binding at 1 µM [1]	remaining binding at 1 µM [2]	remaining binding at 1 µM [3]	remaining binding at 1 µM [4, 8]	remaining binding at 1 µM [4, 9]	remaining binding at 1 µM [5]	remaining binding at 1 µM [6]	remaining binding at 1 µM [7]
CNc1nc(Nc2ccc(C(=O)N3CCOCC3)cc2OC)nc2[nH]cc(C#N)c12 [Example 1, 2-((2-methoxy-4-(morpholine-4-carbonyl)phenyl)amino)-4-(methylamino)-7H-pyrrolo[2,3-d]pyrimidine-5-carbonitrile]	92%	83%	100%	98%	59%	99%	84%	71%
CC1(Nc2nc(Nc3cnn([C@H]4CCN(C5COC5)C[C@@H]4F)c3Cl)nc3[nH]cc(C#N)c23)CC1 [Example 52, 2-((5-chloro-1-((3S,4S)-3-fluoro-1-(oxetane-3-yl)piperidine-4-yl)-1H-pyrazole-4-yl)amino)((1-methylcyclopropyl)amino)-7H-pyrrolo[2,3-d]pyrimidine-5-carbonitrile]	0.1%	0%	76%	2.4%	52%	53%	0.35%	100%
CCNc1nc(Nc2ccc(C(=O)N3CCC(N4CCOCC4)CC3)cc2OC)nc2[nH]cc(C(F)(F)F)c12 [Example 104, (4-((4-(ethylamino)-5-(trifluoromethyl)-7H-pyrrolo[2,3-d]pyrimidine-2-yl)amino)-3-methoxyphenyl)(4-morpholinopiperidine-1-yl)methanone]	21%	100%	100%	89%	61%	97%	60%	100%
